Measurements as given in patent US10717730B1, “Dihydroisoquinoline compound” (SUZHOU ARK BIOPHARMACEUTICAL CO., LTD., priority 2017, dated 2020).
Counter-ions that a name gives are not always drawn.

tested on: HBsAg; test: HBsAg assay (secreted HBsAg by CLIA in HepG2.2.15 cells); assay type: cell-based, hepatitis B virus (HBV); conditions: Hepatitis B virus, HepG2.2.15, 96 h
Experimental: HepG2.2.15 cells (Sells et al, Proc Natl Acad Sci USA. 1987 February; 84(4):1005-9), a constitutively HBV-expressing cell line, were cultured in DMEM medium supplemented with 10% FBS and 400 μg/mL G418, and maintained in 5% CO2 at 37° C.
HepG2.2.15 cells were seeded into 96-well plates at 3×10^4 cells/well. The next day, the cells were treated with a five-fold serial dilution series of the compound in DMSO. The final DMSO concentration in all wells was 0.5% and 0.5% DMSO was used as no drug control. After four days of incubation with compounds, the supernatants were harvested and measured for HBsAg concentration
The HBsAg chemiluminescence immunoassay (CLIA) kit was used to measure the levels of secreted HBsAg. Specifically, 50 μL of culture supernatant was transferred to the CLIA assay plate and 50 μL of enzyme conjugate reagent was added into each well. The plates were sealed and incubated for 1 hour at room temperature. The supernatant-enzyme-mixture was discarded and wells were washed for 6 times. The residual liquid was removed by plating on tissue paper. 25 μL of substrate A and B were added into each well. Luminance was measured using a spectrometer (Tecan Infinite® F200) after 10 minutes incubation. IC50 value was extrapolated based the dose-response curves generated from the data.

SMILES | IC50 [nM]
COc1cc2c(cc1-c1cn[nH]c1)CC(C(C)C)n1cc(C(=O)O)c(=O)cc1-2 (stereo not shown) [Example 1, 6-isopropyl-10-methoxy-2-oxo-9-(1H-pyrazol-4-yl)-6,7-dihydro-2H-pyrido[2,1-a]isoquinoline-3-carboxylic acid] | 14
COc1cc2c(cc1-c1cnn(CC(F)(F)F)c1)CC(C(C)C)n1cc(C(=O)O)c(=O)cc1-2 (stereo not shown) [Example 2, 6-isopropyl-10-methoxy-2-oxo-9-(1-(2,2,2-trifluoroethyl)-1H-pyrazol-4-yl)-6,7-dihydro-2H-pyrido[2,1-a]isoquinoline-3-carboxylic acid] | 8
COCCn1cc(-c2cc3c(cc2OC)-c2cc(=O)c(C(=O)O)cn2C(C(C)C)C3)cn1 (stereo not shown) [Example 3, 6-isopropyl-10-methoxy-9-(1-(2-methoxyethyl)-1H-pyrazol-4-yl)-2-oxo-6,7-dihydro-2H-pyrido[2,1-a]isoquinoline-3-carboxylic acid] | 18
COc1cc2c(cc1-c1cnn(CCCO)c1)CC(C(C)C)n1cc(C(=O)O)c(=O)cc1-2 (stereo not shown) [Example 4, 9-(1-(3-hydroxypropyl)-1H-pyrazol-4-yl)-6-isopropyl-10-methoxy-2-oxo-6,7-dihydro-2H-pyrido[2,1-a]isoquinoline-3-carboxxylic acid] | 24
COc1cc2c(cc1-c1cnn(CC(C)C)c1)CC(C(C)C)n1cc(C(=O)O)c(=O)cc1-2 (stereo not shown) [Example 5, 9-(1-isobutyl-1H-pyrazol-4-yl)-6-isopropyl-10-methoxy-2-oxo-6,7-dihydro-2H-pyrido[2,1-a]isoquinoline-3-carboxylic acid] | 14
CCCn1cc(-c2cc3c(cc2OC)-c2cc(=O)c(C(=O)O)cn2C(C(C)C)C3)cn1 (stereo not shown) [Example 6, 6-isopropyl-10-methoxy-2-oxo-9-(1-propyl-1H-pyrazol-4-yl)-6,7-dihydro-2H-pyrido[2,1-a]isoquinoline-3-carboxylic acid] | 6
COc1cc2c(cc1-c1ccc(C)nc1)CC(C(C)C)n1cc(C(=O)O)c(=O)cc1-2 (stereo not shown) [Example 7, 6-isopropyl-10-methoxy-9-(6-methylpyridin-3-yl)-2-oxo-6,7-dihydro-2H-pyrido[2,1-a]isoquinoline-3-carboxylic acid] | 36
COc1cc2c(cc1-c1cn[nH]c1)CC(C(C)(C)C)n1cc(C(=O)O)c(=O)cc1-2 (stereo not shown) [Example 8, 6-(tert-butyl)-10-methoxy-2-oxo-9-(1H-pyrazol-4-yl)-6,7-dihydro-2H-pyrido[2,1-a]isoquinoline-3-carboxylic acid] | 9
COc1cc2c(cc1-c1cnn(CCCO)c1)CC(C(C)(C)C)n1cc(C(=O)O)c(=O)cc1-2 (stereo not shown) [Example 9, 6-(tert-butyl)-9-(1-(3-hydroxypropyl)-1H-pyrazol-4-yl)-10-methoxy-2-oxo-6,7-dihydro-2H-pyrido[2,1-a]isoquinoline-3-carboxylic acid] | 290
COc1cc2c(cc1-c1cnn(CC(F)(F)F)c1)CC(C(C)(C)C)n1cc(C(=O)O)c(=O)cc1-2 (stereo not shown) [Example 10, 6-(tert-butyl)-10-methoxy-2-oxo-9-(1-(2,2,2-trifluoroethyl)-1H-pyrazol-4-yl)-6,7-dihydro-2H-pyrido[2,1-a]isoquinoline-3-carboxylic acid] | 6
COc1cc2c(cc1-c1cnn(C3COC3)c1)CC(C(C)(C)C)n1cc(C(=O)O)c(=O)cc1-2 (stereo not shown) [Example 11, 6-(tert-butyl)-10-methoxy-9-(1-(oxetan-3-yl)-1H-pyrazol-4-yl)-2-oxo-6,7-dihydro-2H-pyrido[2,1-a]isoquinoline-2-carboxylic acid] | 3
COc1cc2c(cc1-c1cnn(CC(C)O)c1)CC(C(C)(C)C)n1cc(C(=O)O)c(=O)cc1-2 (stereo not shown) [Example 12, 6-(tert-butyl)-9-(1-(2-hydroxypropyl)-1H-pyrazol-4-yl)-10-methoxy-2-oxo-6,7-dihydro-2H-pyrido[2,1-a]isoquinoline-3-carboxylic acid] | 2
COc1cc2c(cc1-c1ccnn1C)CC(C(C)(C)C)n1cc(C(=O)O)c(=O)cc1-2 (stereo not shown) [Example 13, 6-(tert-butyl)-10-methoxy-9-(1-methyl-1H-pyrazol-5-yl)-2-oxo-6,7-dihydro-2H-pyrido[2,1-a]isoquinoline-3-carboxylic acid] | 18
COc1cc2c(cc1-c1cnn(C(F)F)c1)CC(C(C)(C)C)n1cc(C(=O)O)c(=O)cc1-2 (stereo not shown) [Example 14, 6-(tert-butyl)-9-(1-(difluoromethyl)-1H-pyrazol-4-yl)-10-methoxy-2-oxo-6,7-dihydro-2H-pyrido[2,1-a]isoquinoline-3-carboxylic acid] | 2
COc1cc2c(cc1-c1cc(C)nn1C)CC(C(C)(C)C)n1cc(C(=O)O)c(=O)cc1-2 (stereo not shown) [Example 15, 6-(tert-butyl)-9-(1,3-dimethyl-1H-pyrazol-5-yl)-10-methoxy-2-oxo-6,7-dihydro-2H-pyrido[2,1-a]isoquinoline-3-carboxylic acid] | 4
COc1cc2c(cc1-c1cnn(CCN3CCOCC3)c1)CC(C(C)(C)C)n1cc(C(=O)O)c(=O)cc1-2 (stereo not shown) [Example 16, 6-(tert-butyl)-10-methoxy-9-(1-(2-morpholinylethyl)-1H-pyrazol-4-yl)-2-oxo-6,7-dihydro-2H-pyrido[2,1-a]isoquinoline-3-carboxylaic acid] | 2
COc1cc2c(cc1-c1cnn(C3CCNCC3)c1)CC(C(C)(C)C)n1cc(C(=O)O)c(=O)cc1-2 (stereo not shown) [Example 17, 6-(tert-butyl)-10-methoxy-2-oxo-9-(1-(piperidin-4-yl)-1H-pyrazol-4-yl)-6,7-dihydro-2H-pyrido[2,1-a]isoquinoline-3-carboxylic acid hydrochloride] | 25
CCOC(=O)CCn1cc(-c2cc3c(cc2OC)-c2cc(=O)c(C(=O)O)cn2C(C(C)(C)C)C3)cn1 (stereo not shown) [Example 23, 6-(tert-butyl)-9-(1-(3-ethoxy-3-oxopropyl)-1H-pyrazol-4-yl)-10-methoxy-2-oxo-6,7-dihydro-2H-pyrido[2,1-a]isoquinoline-3-carboxylic acid] | 40
COc1cc2c(cc1-c1cnn(C(C)C(=O)O)c1)CC(C(C)(C)C)n1cc(C(=O)O)c(=O)cc1-2 (stereo not shown) [Example 26, 6-(tert-butyl)-9-(1-(1-carboxyethyl)-1H-pyrazol-4-yl)-10-methoxy-2-oxo-6,7-dihydro-2H-pyrido[2,1-a]isoquinoline-3-carboxylic acid] | 8
COc1cc2c(cc1-c1cnn(C(C)(C)C(=O)O)c1)CC(C(C)(C)C)n1cc(C(=O)O)c(=O)cc1-2 (stereo not shown) [Example 27, 6-(tert-butyl)-9-(1-(2-carboxyprop-2-yl)-1H-pyrazol-4-yl)-10-methoxy-2-oxo-6,7-dihydro-2H-pyrido[2,1-a]isoquinoline-3-carboxylic acid] | 4
COc1cc2c(cc1-c1nc[nH]n1)CC(C(C)(C)C)n1cc(C(=O)O)c(=O)cc1-2 (stereo not shown) [Example 29, 6-(tert-butyl)-10-methoxy-2-oxo-9-(1H-1,2,4-triazol-3-yl)-6,7-dihydro-2H-pyrido[2,1-a]isoquinoline-3-carboxylic acid] | 12
COc1cc2c(cc1-c1ncn(CC(=O)O)n1)CC(C(C)(C)C)n1cc(C(=O)O)c(=O)cc1-2 (stereo not shown) [Example 30, 6-(tert-butyl)-9-(1-(carboxymethyl)-1H-1,2,4-triazol-3-yl)-10-methoxy-2-oxo-6,7-dihydro-2H-pyrido[2,1-a]isoquinoline-3-carboxylic acid] | 13
